Test results published in PMC10065799, “High-throughput profiling of sequence recognition by tyrosine kinases and SH2 domains using bacterial peptide display” (eLife, 2023).

Target: T1, c-Abl kinase domain (Mus musculus, UniProt P00520)
T1 sequence (P00520 242-493 limits assumed): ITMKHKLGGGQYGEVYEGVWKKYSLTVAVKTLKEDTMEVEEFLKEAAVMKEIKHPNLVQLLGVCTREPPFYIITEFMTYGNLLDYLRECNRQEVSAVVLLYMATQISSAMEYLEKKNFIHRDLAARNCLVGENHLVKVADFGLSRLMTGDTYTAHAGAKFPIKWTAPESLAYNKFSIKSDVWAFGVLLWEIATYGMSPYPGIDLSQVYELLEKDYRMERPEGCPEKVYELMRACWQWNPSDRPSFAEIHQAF
Test: pTyr-Var library bacterial peptide display kinase screen (enrichment scores)
Type: biochemical
Details: variant versus reference peptide

## GMAHNYRNRSQ [AASS_Y188_S191R]
  c-Abl difference (mean log2 variant - mean log2 reference): 0.7958
